Data as given in article PMC10142558, “In Silico and In Vivo Studies of a Tumor-Penetrating and Interfering Peptide with Antitumoral Effect on Xenograft Models of Breast Cancer” (Pharmaceutics, 2023).
Non-standard residues stand in square brackets, D forms with d. Residues, ends and D or L forms follow the SMILES beside them. Ahx = NCCCCCC(=O)O

Experiment: Peptide stability in human serum
Type: in vitro ADME
Conditions: human serum (Gibco), 37 °C, intact peptide by MALDI-TOF MS, triplicate, mean; for remaining at 6 h: 6 h incubation, read-out: percentage of peptide recovered in human serum, 6 h; for remaining at 24 h: 24 h incubation, read-out: percentage of peptide recovered in human serum, 24 h
Description: The peptide TT1-IP was incubated at 37 °C in […] of human serum (Gibco, Illikirch, France) for different periods of time. Samples were collected and peptide degradation stopped by freezing at −20 °C. The peptide was extracted from samples using the Proteo Miner Protein Enrichment System (Bio-Rad, Marnes-la-Coquette, France). The percentage of intact peptide was estimated by mass spectrometry (MS) using MALDI-TOFF with the protocol previously described (Bruker Autoflex II, Palaiseau, France) according to the manufacturer’s instructions. Measurements were performed in triplicate. MS data were analysed using the software Cliprot tools, Flex analysis, Bruker.
iRGD-IP and Lin TT1-IP were incubated in human serum at 37 °C for different periods of time. The integrity of the peptide was analyzed by mass spectrometry (MS). Every measurement was performed in triplicate. Each value is represented as the mean ± standard deviation (SD). Similar results were obtained in two independent experiments.

Compound	remaining at 3 h (3 h incubation, read-out: percentage of peptide recovered in human serum, 3 h)	remaining at 6 h	remaining at 24 h	remaining at 1 h (1 h incubation, read-out: percentage of peptide recovered in human serum, 1 h)
CC[C@H](C)[C@H](NC(=O)[C@H](CCCNC(=N)N)NC(=O)[C@H](CCC(=O)O)NC(=O)[C@H](CCCNC(=N)N)NC(=O)[C@H](Cc1ccc(O)cc1)NC(=O)[C@H](CCCNC(=N)N)NC(=O)[C@@H](NC(=O)[C@H](CCCCN)NC(=O)[C@H](CC(C)C)NC(=O)[C@H](C)NC(=O)[C@@H](NC(=O)[C@H](CC(C)C)NC(=O)[C@H](CC(C)C)NC(=O)[C@@H](NC(=O)[C@@H](NC(=O)[C@@H](NC(=O)[C@@H](N)CCC(=O)O)[C@@H](C)O)C(C)C)[C@@H](C)O)C(C)C)C(C)C)C(=O)N[C@H](C(=O)NCCCCCC(=O)N[C@@H](C)C(=O)N[C@@H](CCCCN)C(=O)N[C@@H](CCCNC(=N)N)C(=O)NCC(=O)N[C@@H](C)C(=O)N[C@@H](CCCNC(=N)N)C(=O)N[C@@H](CO)C(=O)N[C@H](C(=O)N[C@@H](C)C(N)=O)[C@@H](C)O)[C@@H](C)O [Lin TT1-IP] (H-ETVTLLVALKVRYRERIT[Ahx]AKRGARSTA-NH2)	~80%	44%	~30%	–
CC[C@H](C)[C@H](NC(=O)[C@H](CCCNC(=N)N)NC(=O)[C@H](CCC(=O)O)NC(=O)[C@H](CCCNC(=N)N)NC(=O)[C@H](Cc1ccc(O)cc1)NC(=O)[C@H](CCCNC(=N)N)NC(=O)[C@@H](NC(=O)[C@H](CCCCN)NC(=O)[C@H](CC(C)C)NC(=O)[C@H](C)NC(=O)[C@@H](NC(=O)[C@H](CC(C)C)NC(=O)[C@H](CC(C)C)NC(=O)[C@@H](NC(=O)[C@@H](NC(=O)[C@@H](NC(=O)[C@@H](N)CCC(=O)O)[C@@H](C)O)C(C)C)[C@@H](C)O)C(C)C)C(C)C)C(=O)N[C@H](C(=O)NCCCCCC(=O)N[C@H]1CSSC[C@@H](C(N)=O)NC(=O)[C@H](CC(=O)O)NC(=O)[C@@H]2CCCN2C(=O)CNC(=O)[C@H](CCCCN)NC(=O)[C@H](CC(=O)O)NC(=O)CNC(=O)[C@H](CCCNC(=N)N)NC1=O)[C@@H](C)O [iRGD-IP]	–	77%	62%	91%
